pIC50: −log10 of the molar value.
target: ATX (human His-tagged) (Homo sapiens (Human), UniProt Q13822); experiment: Human ATX enzyme inhibition assay (fluorescence quenching, MR121 substrate); format: biochemical; conditions: 30 nM ATX, 1 μM MR121 substrate, 30° C.
Description: Human ATX Enzyme Inhibition Assay
Assay working solutions were made as follows:

Row | Compound | pIC50
1 | O=C(OCc1cc(Cl)cc(Cl)c1)N1CC2(CC(NS(=O)(=O)c3ccc4[nH]c(=O)oc4c3)C2)C1 [Example 3.4, 3,5-dichlorobenzyl 6-(2-oxo-2,3-dihydrobenzo[d]oxazole-6-sulfonamido)-2-azaspiro[3.3]heptane-2-carboxylate] | 7.71
2 | O=C(/C=C/c1cc(Cl)cc(Cl)c1)N1CCC2(CC1)CN(C(=O)c1ccc3[nH]c(=O)oc3c1)C2 [Example 6.4, 6-{7-[(E)-3-(3,5-dichloro-phenyl)-acryloyl]-2,7-diaza-spiro[3.5]nonane-2-carbonyl}-3H-benzooxazol-2-one] | 7.66
3 | O=C(CCc1cc(Cl)cc(Cl)c1)N1CCC2(CC1)CC(Nc1ccc3[nH]c(=O)oc3c1)C2 [Example 6.1, 6-(7-(3-(3,5-dichlorophenyl)propanoyl)-7-azaspiro[3.5]nonan-2-ylamino)benzo[d]oxazol-2(3H)-one] | 6.44
4 | O=C(NC1CC2(C1)CN(C(=O)OCc1cc(Cl)cc(Cl)c1)C2)c1ccc2[nH]nnc2c1 [Example 1.13, 6-[(1H-benzotriazole-5-carbonyl)-amino]-2-aza-spiro[3.3]heptane-2-carboxylic acid 3,5-dichloro-benzyl ester] | 5.27
5 | O=C(NCc1cnn[nH]1)C1CC2(CCN(C(=O)/C=C/c3ccc(OC(F)(F)F)cc3)CC2)C1 [Example 6.8, (E)-N-((1H-1,2,3-triazol-5-yl)methyl)-7-(3-(4-(trifluoromethoxy)phenyl)acryloyl)-7-azaspiro[3.5]nonane-2-carboxamide] | 7.04
6 | O=C(c1ccc2[nH]nnc2c1)N1CCC2(CCN(C(=O)c3cc4cc(Cl)ccc4o3)C2)C1 (stereo not shown) [Example 6.7, (7-(1H-benzo[d][1,2,3]triazole-5-carbonyl)-2,7-diazaspiro[4.4]nonan-2-yl)(5-chlorobenzofuran-2-yl)methanone] | 5.41
7 | NS(=O)(=O)c1ccc(C(=O)N2CC3(CCN(C(=O)OCc4ccc(OC(F)(F)F)cc4)CC3)C2)cc1 [Example 1.22, 4-(trifluoromethoxy)benzyl 2-(4-sulfamoylbenzoyl)-2,7-diazaspiro[3.5]nonane-7-carboxylate] | 7.82
8 | O=C(NCc1c[nH]nn1)N1CC2(CCN(C(=O)OCc3ccc(OC(F)(F)F)cc3)CC2)C1 [Example 14, [4-(Trifluoromethoxy)phenyl]methyl 2-((1H-triazol-4-ylmethyl)carbamoyl)-2,7-diazaspiro[3.5]nonane-7-carboxylate] | 7.64

Now from value to compound:

Row | pIC50 | Compound
9 | 5.25 | N#Cc1cc(Cl)cc(COC(=O)N2CC3(CC(NC(=O)c4ccc5[nH]nnc5c4)C3)C2)c1 [Example 12.20, 6-[(1H-benzotriazole-5-carbonyl)-amino]-2-aza-spiro[3.3]heptane-2-carboxylic acid 3-chloro-5-cyano-benzyl ester]
10 | 6.82 | O=C(OCc1cc(Cl)nc(Cl)c1)N1CCC2(CC1)CN(C(=O)c1ccc3[nH]nnc3c1)C2 [Example 12.01, (2,6-dichloropyridin-4-yl)methyl 2-(1H-benzo[d][1,2,3]triazole-5-carbonyl)-2,7-diazaspiro[3.5]nonane-7-carboxylate]
11 | 5.79 | O=C(OCc1cc(F)cc(OC(F)(F)F)c1)N1CCCC2(CCN(C(=O)c3ccc4[nH]nnc4c3)C2)C1 (stereo not shown) [Example 12.30, 3-fluoro-5-(trifluoromethoxy)benzyl 2-(1H-benzo[d][1,2,3]triazole-5-carbonyl)-2,7-diazaspiro[4.5]decane-7-carboxylate]
12 | 6.36 | O=C(OCc1ccc(C(F)(F)F)cc1)N1CCC2(CC1)CN(C(=O)c1ccc3[nH]c(=O)oc3c1)C2 [Example 12.22, 4-(trifluoromethyl)benzyl 2-(2-oxo-2,3-dihydrobenzo[d]oxazole-6-carbonyl)-2,7-diazaspiro[3.5]nonane-7-carboxylate]
13 | 8.00 | O=C(OCc1ccc(OC(F)(F)F)cc1)N1CC2(CCN(C(=O)C3CCc4[nH]nnc4C3)CC2)C1 (stereo not shown) [Example 12.34, 4-(trifluoromethoxy)benzyl 7-(4,5,6,7-tetrahydro-1H-benzo[d][1,2,3]triazole-5-carbonyl)-2,7-diazaspiro[3.5]nonane-2-carboxylate]

— patent US9493486B2, “Diazaspirocycloalkane and azaspirocycloalkane” (Hoffmann-La Roche Inc., priority 2012, dated 2016)
